pEC50: −log10 of the molar value. Like-named read-outs stand apart in the source and are kept apart here.
Legend:
[1] = target: T1, human cloned CHRM4 receptor (M4_CHO cells) (Homo sapiens, UniProt P08173); assay: CHRM4 Ca++ Flux Assay (agonist mode, FDSS 7000EX); format: cell-based; conditions: for M4 FDSS PA: Percent Activity; for pEC50: geometric mean if tested more than once, read-out: M4 FDSS EC50
T1 construct: expressed in transfected cells; host or cells: CHO-K1
T1 sequence (P08173 1-479): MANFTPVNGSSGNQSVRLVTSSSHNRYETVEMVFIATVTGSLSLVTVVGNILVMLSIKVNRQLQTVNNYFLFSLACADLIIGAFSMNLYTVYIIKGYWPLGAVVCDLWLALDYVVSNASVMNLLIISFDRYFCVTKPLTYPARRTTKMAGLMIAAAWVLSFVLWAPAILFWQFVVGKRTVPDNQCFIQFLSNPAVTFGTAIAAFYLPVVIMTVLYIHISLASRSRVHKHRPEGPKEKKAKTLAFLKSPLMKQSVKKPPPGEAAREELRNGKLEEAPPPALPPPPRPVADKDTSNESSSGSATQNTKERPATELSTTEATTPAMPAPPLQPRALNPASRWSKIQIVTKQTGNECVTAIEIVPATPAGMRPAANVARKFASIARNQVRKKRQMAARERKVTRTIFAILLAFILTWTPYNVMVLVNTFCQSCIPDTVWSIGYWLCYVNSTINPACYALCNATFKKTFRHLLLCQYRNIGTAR
Description: (§1) The above examples were characterized by measuring the intracellular mobilization of Ca++ ions caused by signaling events mediated by the receptor. The Intra-cellular Calcium flux levels were captured by the highly sensitive Ca++ indicator, Calcium Assay Kit (BD Biosciences, Catalog Number 640178). The fluorescent activity from all receptors were monitored by the fluorescent imager, FDSS 7000EX (Hamamatsu) over a span of 3 minutes.
CHO-K1 cells stably expressing the human cloned CHRM4 receptor (M4_CHO cells) were grown and maintained in a monolayer culture with F12/HAM (Life Technologies) supplemented with 10% Fetal Bovine Serum, 1× Pen-Strep, and 0.4 mg/mL Geneticin in a humidified atmosphere (5% CO2) at 37° C. The cultures were grown to 80-90% confluency in T150 flasks (Corning) and washed with 1×DPBS then lifted with 0.05% Trypsin (Life Technologies). The cells were harvested in growth media then spun (1K rpm, 3 minutes) and cryopreserved using Recovery Cell Culture Freezing Media (Gibco Technologies). Cells were stored in liquid nitrogen and thawed a day before the assay.
Prior to the day of the assay, stable M4_CHO cells were thawed and plated on 384 well black walled clear bottom TC treated plates (Greiner Cat #781091) at 12K cells/well using F12/HAM Media supplemented with 10% FBS (Life Technologies) and kept overnight in a humidified atmosphere (5% CO2) at 37° C. The next day, cells were loaded with […] Ca^++ dye (BD Biosciences) using Loading Buffer (HBSS +Ca/+Mg, 20 mM HEPES, 2.5 mM Probenecid) and placed back in cell incubator for a minimum of 1 hour. After incubation, the dye was replaced with 45 μL Assay Buffer (HBSS −Ca/−Mg, 20 mM HEPES, 2.5 mM Probenecid) supplemented with 20 μM ATP (Sigma Aldrich) and kept at room temperature in the dark for 60 minutes before running on a cell imager. The FDSS 7000EX (Hamamatsu) was used to capture Ca^++ traces for a span of 3 minutes from cells treated with 11 point dose of compound in triplicate in order to generate dose response curves in agonist mode. All compounds were serially diluted in DMSO then prepared in Assay Buffer for Ca^++ flux studies. The dose response curves were generated from the average of triplicate wells obtained from each data point and used a non-linear regression of four parameter dose response algorithm. The Percent Activity (PA) was measured to EC100 of Carbachol.

[2] = target: T2, Cloned human M1 receptor (CHRM1) stably expressed in HEK293 cells (Homo sapiens, UniProt P11229); assay: CHRM1 Ca++ Flux Assay (agonist mode, FDSS 7000EX); format: cell-based; conditions: for M1 FDSS PA: Percent Activity; for pEC50: geometric mean if tested more than once
T2 construct: expressed in transfected cells; host or cells: HEK293
T2 sequence (P11229 1-460): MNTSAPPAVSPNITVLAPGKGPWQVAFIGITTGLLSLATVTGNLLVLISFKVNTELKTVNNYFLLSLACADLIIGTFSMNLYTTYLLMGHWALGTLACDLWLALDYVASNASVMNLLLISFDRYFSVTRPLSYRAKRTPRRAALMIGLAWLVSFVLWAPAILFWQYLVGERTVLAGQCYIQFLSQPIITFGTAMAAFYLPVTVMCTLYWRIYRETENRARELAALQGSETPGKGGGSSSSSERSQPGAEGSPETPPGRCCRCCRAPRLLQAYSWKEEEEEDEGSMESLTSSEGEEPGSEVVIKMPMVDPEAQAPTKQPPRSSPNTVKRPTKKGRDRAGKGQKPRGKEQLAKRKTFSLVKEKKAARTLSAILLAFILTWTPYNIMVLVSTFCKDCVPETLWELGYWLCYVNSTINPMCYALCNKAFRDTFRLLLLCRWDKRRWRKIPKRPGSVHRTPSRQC
Description: as §1
Cloned human M1 receptor (CHRM1) was stably expressed in HEK293 cells and were grown and maintained in a monolayer culture with DMEM/High Glucose (Life Technologies) supplemented with 10% Fetal Bovine Serum, 1× Pen-Strep, and 0.5 mg/mL Geneticin in a humidified atmosphere (5% CO2) at 37° C. The cultures were grown to 90% confluency in T150 flasks (Corning) and washed with 1×DPBS and lifted with 0.05% Trypsin (Life Technologies). The cells were then spun (1K rpm, 3 minutes) and frozen using Recovery Cell Culture Freezing Media (Gibco Technologies). Cells were stored in liquid nitrogen and thawed a day before the assay.
Prior to the day of the assay, stable HEK293 M1 cells were thawed and plated on 384 well black walled clear bottom TC treated plates (Greiner Cat #781091) at 25K cells/well with DMEM/High Glucose supplemented with 10% FBS (Hyclone) Pen-Strep (Life Technologies) and kept overnight in a humidified atmosphere (5% CO2) at 37° C. The following day, cells were loaded with 20 uL Ca^++ dye (BD Biosciences) using Loading Buffer (HBSS +Ca/+Mg, 20 mM HEPES) and placed back in cell incubator for a minimum of 1 hour. The dye was replaced with 45 μL Assay Buffer (HBSS −Ca/−Mg, 20 mM HEPES) and kept at room temperature prior to running on cell imager. Compounds were prepared in Assay Buffer and 5 uL was added to the cells. The FDSS 7000EX (Hamamatsu) was used to acquire Ca++ traces for 3 minutes from cells treated with 11 point dose in triplicate in order to generate dose response curves in agonist mode. All compounds were serially diluted in DMSO then prepared in Assay Buffer for Ca^++ flux studies. The dose response curves were generated from the average of triplicate wells obtained from each data point and used a non-linear regression of four parameter dose response algorithm. The Percent Activity (PA) was measured to EC100 of Carbachol.

Compound	M4 FDSS PA [1] [%]	pEC50 [1]	M1 FDSS PA [2] [%]	pEC50 [2]	M4 FDSS PA ([1]; citrate salt) [%]	pEC50 ([1]; citrate salt)
O[C@H]1CC[C@@H](c2ccccc2C2CCN([C@@H]3CCC4(C3)CN(c3nnco3)C4)CC2)CC1 (single isomer, unassigned) [Example 2N, (1S,4s)-4-(2-(1-((R)-2-(1,3,4-oxadiazol-2-yl)-2-azaspiro[3.4]octan-6-yl)piperidin-4-yl)phenyl)cyclohexan-1-ol or (1R,4r)-4-(2-(1-((R)-2-(1,3,4-oxadiazol-2-yl)-2-azaspiro[3.4]octan-6-yl)piperidin-4-yl)phenyl)cyclohexan-1-ol]	81	9.00	69	6.52	–	–
OC1CCC(c2ccccc2C2CCN([C@@H]3CCC4(C3)CN(c3nnco3)C4)CC2)CC1 (single isomer, unassigned) [Example 2O, (1s,4r)-4-(2-(1-((R)-2-(1,3,4-oxadiazol-2-yl)-2-azaspiro[3.4]octan-6-yl)piperidin-4-yl)phenyl)cyclohexan-1-ol or (1r,4r)-4-(2-(1-((R)-2-(1,3,4-oxadiazol-2-yl)-2-azaspiro[3.4]octan-6-yl)piperidin-4-yl)phenyl)cyclohexan-1-ol]	89	> 9.40	77	7.09	–	–
O=C(N1CC2(CC[C@@H](N3CCC(c4ccccc4OCCC(F)(F)F)CC3)C2)C1)C1(F)CC1 (single isomer, unassigned) [Example 7AA, (R)-(1-fluorocyclopropyl)(6-(4-(2-(3,3,3-trifluoropropoxy)phenyl)piperidin-1-yl)-2-azaspiro[3.4]octan-2-yl)methanone or (S)-(1-fluorocyclopropyl)(6-(4-(2-(3,3,3-trifluoropropoxy)phenyl)piperidin-1-yl)-2-azaspiro[3.4]octan-2-yl)methanone]	54	7.96	57	6.86	–	–
CC(C)(O)CCOc1ccccc1C1CCN([C@@H]2CCC3(C2)CN(C(=O)C2(F)CC2)C3)CC1 (single isomer, unassigned) [Example 7BB, (R)-(1-fluorocyclopropyl)(6-(4-(2-(3-hydroxy-3-methylbutoxy)phenyl)piperidin-1-yl)-2-azaspiro[3.4]octan-2-yl)methanone or (S)-(1-fluorocyclopropyl)(6-(4-(2-(3-hydroxy-3-methylbutoxy)phenyl)piperidin-1-yl)-2-azaspiro[3.4]octan-2-yl)methanone]	38	8.70	55	7.89	–	–
COC(C)(C)CCOc1ccccc1C1CCN([C@@H]2CCC3(C2)CN(C(=O)C2(F)CC2)C3)CC1 (single isomer, unassigned) [Example 7FF, (R)-(1-fluorocyclopropyl)(6-(4-(2-(3-methoxy-3-methylbutoxy)phenyl)piperidin-1-yl)-2-azaspiro[3.4]octan-2-yl)methanone or (S)-(1-fluorocyclopropyl)(6-(4-(2-(3-methoxy-3-methylbutoxy)phenyl)piperidin-1-yl)-2-azaspiro[3.4]octan-2-yl)methanone]	38	8.30	7	6.74	–	–
O=C(N1CC2(CC[C@@H](N3CCC(c4ccccc4OCc4ncccn4)CC3)C2)C1)C1(F)CC1 (single isomer, unassigned) [Example 7M, (R)-(1-fluorocyclopropyl)(6-(4-(2-(pyrimidin-2-ylmethoxy)phenyl)piperidin-1-yl)-2-azaspiro[3.4]octan-2-yl)methanone or (S)-(1-fluorocyclopropyl)(6-(4-(2-(pyrimidin-2-ylmethoxy)phenyl)piperidin-1-yl)-2-azaspiro[3.4]octan-2-yl)methanone]	50	9.00	84	8.00	–	–
O=C(N1CC2(CC[C@@H](N3CCC(c4ccccc4OCCO)CC3)C2)C1)C1(F)CC1 (single isomer, unassigned) [Example 7N, (R)-(1-fluorocyclopropyl)(6-(4-(2-(2-hydroxyethoxy)phenyl)piperidin-1-yl)-2-azaspiro[3.4]octan-2-yl)methanone or (S)-(1-fluorocyclopropyl)(6-(4-(2-(2-hydroxyethoxy)phenyl)piperidin-1-yl)-2-azaspiro[3.4]octan-2-yl)methanone]	68	9.00	45	7.66	–	–
O=C(C1COC1)N1CC2(CC[C@H](N3CCC(c4ccccc4OC(F)F)CC3)C2)C1.O=C(O)CC(O)(CC(=O)O)C(=O)O (single isomer, unassigned) [Example 8E, (S)-(6-(4-(2-(difluoromethoxy)phenyl)piperidin-1-yl)-2-azaspiro[3.4]octan-2-yl)(oxetan-3-yl)methanone or (R)-(6-(4-(2-(difluoromethoxy)phenyl)piperidin-1-yl)-2-azaspiro[3.4]octan-2-yl)(oxetan-3-yl)methanone citrate salt]	–	–	–	–	61	8.70
O=C(C1COC1)N1CC2(CC[C@H](N3CCC(c4ccccc4OC(F)F)CC3)C2)C1.O=C(O)CC(O)(CC(=O)O)C(=O)O (single isomer, unassigned) [Example 8F, (S)-(6-(4-(2-(difluoromethoxy)phenyl)piperidin-1-yl)-2-azaspiro[3.4]octan-2-yl)(oxetan-3-yl)methanone or (R)-(6-(4-(2-(difluoromethoxy)phenyl)piperidin-1-yl)-2-azaspiro[3.4]octan-2-yl)(oxetan-3-yl)methanone citrate salt]	–	–	–	–	10	5.96
